Marks after values point to notes of the source that are not given here.
Legend:
[1] = tested on: female Sprague-Dawley rats; assay: Cystometry tests on conscious fresh rats; format: in vivo, rat; conditions: for BC Bladder Capacity (change compared to the baseline value) / ICI Inter-Contraction Interval (change compared to the baseline value) / TP Threshold Pressure (change compared to the baseline value): effect maximum, mean of 3 micturition cycles; for Activity of the enantiomers of racemic compound 1 in cystometry: iv
Method: Three days after implantation of bladder and venous catheters the animals were investigated in the conscious state while freely moving. The bladder catheter was connected to a pressure gauge and an injection pump. The animals were placed in metabolic cages that enable the volume of urine to be measured. Physiological saline solution was infused (10 ml/hour) into the emptied bladder and the bladder pressure and volume of urine were continuously recorded. After a stabilisation phase a 20-minute phase was recorded that was characterised by normal, reproducible micturition cycles. The following parameters among others were measured:
threshold pressure TP, bladder pressure immediately before micturition,
bladder capacity BC, residual volume after prior micturition plus volume of infused solution during the filling phase,
intercontraction interval ICI, i.e. the time interval between consecutive micturition.
An increase in the threshold pressure (TP) indicates an important therapeutic effect in one of the medical conditions covered by the invention. Also, the intercontraction interval (ICI) is an important parameter for measuring the physiological effectiveness of a substance in the treatment of urinary incontinence, as is the bladder capacity (BC). In this connection, on account of the widely differing causes of the symptoms of these disease patterns it is not necessary to influence positively all three parameters in order for a medicament to be effective.
After recording three reproducible micturition cycles to provide a baseline value, the test substances 1 (1.0 mg/kg), 2 (0.1; 0.3 and 0.5 mg/kg), 21 (0.5 mg/kg), 7 (0.3 mg/kg), 8 (1.0 mg/kg), 9 (0.5 mg/kg) and 11 (0.5 mg/kg) in a vehicle comprising 0.9% NaCl were applied intravenously and the effect on the cystometric parameters was recorded at 90 to 120 minutes. In the effect maximum the mean value of 3 micturition cycles was determined and recorded as a percentage change compared to the baseline value (Table 1).

[2] = tested on: female rats; assay: Cystometry investigations in narcotised fresh rats (suppression of spontaneous bladder contractions); format: in vivo, rat; conditions: intravenous, cumulative, mean value from at least two experiments
Method: The cystometric investigation was carried out on fresh female rats according to the method of Kimura et al. (Kimura et al., 1996, Int. J. Urol. 3: 218-227). The abdomen of narcotised ventilated rats is opened and the ureter is ligated. The urine is drawn off from the kidneys. A catheter is inserted into the bladder and secured in place. […] The test substance is applied intravenously in a cumulative manner after stable starting values were reached. An effect on the bladder function is manifested by the suppression of the spontaneous contractions. The disappearance of the contractions over a period of 10 minutes serves as a parameter for their suppression.
With all the substances listed there was a measurable suppression of the spontaneous contractions in rats, Table 2 showing the mean value of the lowest dose from at least two experiments, in which contractions disappeared for the first time over a period of 10 minutes.

CC[C@](O)(c1cccc(OC)c1)[C@H](C)CN(C)C.Cl [Compound 2, (+)-(2R,3R)-1-dimethylamino-3-(3-methoxyphenyl)-2-methylpentan-3-ol, hydrochloride]
BC Bladder Capacity (change compared to the baseline value) ([1]; 0.1 mg/kg iv): +7.8% | ICI Inter-Contraction Interval (change compared to the baseline value) ([1]; 0.1 mg/kg iv): +15.6% | TP Threshold Pressure (change compared to the baseline value) ([1]; 0.1 mg/kg iv): +28.5%** | BC Bladder Capacity (change compared to the baseline value) ([1]; 0.3 mg/kg iv): +33%* | ICI Inter-Contraction Interval (change compared to the baseline value) ([1]; 0.3 mg/kg iv): +28%* | TP Threshold Pressure (change compared to the baseline value) ([1]; 0.3 mg/kg iv): +122%** | BC Bladder Capacity (change compared to the baseline value) ([1]; 0.5 mg/kg iv): +20.6%* | ICI Inter-Contraction Interval (change compared to the baseline value) ([1]; 0.5 mg/kg iv): +28.6%** | TP Threshold Pressure (change compared to the baseline value) ([1]; 0.5 mg/kg iv): +77.5%** | Activity of the enantiomers of racemic compound 1 in cystometry [1]: effectively active

CC[C@@](O)(c1cccc(OC)c1)[C@@H](C)CN(C)C.Cl [Compound 21, (−)-(2S,3S)-1-dimethylamino-3-(3-methoxyphenyl)-2-methylpentan-3-ol, hydrochloride]
BC Bladder Capacity (change compared to the baseline value) ([1]; 0.5 mg/kg iv): +3% | ICI Inter-Contraction Interval (change compared to the baseline value) ([1]; 0.5 mg/kg iv): +10% | TP Threshold Pressure (change compared to the baseline value) ([1]; 0.5 mg/kg iv): −1.1% | Activity of the enantiomers of racemic compound 1 in cystometry [1]: plays only a contributory role

C[C@H](CN(C)C)[C@@](C)(O)c1cccc(O)c1.Cl [Compound 10, (+)-(1R,2R)-3-(3-dimethylamino-1-hydroxy-1,2-dimethylpropyl)-phenol, hydrochloride]
Lowest Dose at which contractions disappeared for the first time over a period of 10 minutes [2]: 0.2 mg/kg

CCC(O)(c1cccc(OC)c1)C1(CN(C)C)CCCCC1.Cl (racemic) [Compound 13, (1RS)-1-(1-dimethylaminomethylcyclohexyl)-1-(3-methoxyphenyl)-propan-1-ol, hydrochloride]
Lowest Dose at which contractions disappeared for the first time over a period of 10 minutes [2]: 20.0 mg/kg

C[C@H](CN(C)C)[C@@](C)(O)c1cccc(O)c1.Cl (racemic) [Compound 8, (1RS,2RS)-3-(3-dimethylamino-1-hydroxy-1,2-dimethylpropyl)-phenol, hydrochloride]
BC Bladder Capacity (change compared to the baseline value) ([1]; 1.0 mg/kg iv): +7% | ICI Inter-Contraction Interval (change compared to the baseline value) ([1]; 1.0 mg/kg iv): +14.4% | TP Threshold Pressure (change compared to the baseline value) ([1]; 1.0 mg/kg iv): +60%**

C[C@H](CN(C)C)[C@@](C)(O)c1cccc(O)c1.Cl [Compound 9, (+)-(1R,2R)-3-(3-dimethylamino-1-hydroxy-1,2-dimethylpropyl)-phenol, hydrochloride]
BC Bladder Capacity (change compared to the baseline value) ([1]; 0.5 mg/kg iv): +50%** | ICI Inter-Contraction Interval (change compared to the baseline value) ([1]; 0.5 mg/kg iv): +21%* | TP Threshold Pressure (change compared to the baseline value) ([1]; 0.5 mg/kg iv): +56%**

CC[C@](O)(c1cccc(C(F)F)c1)[C@H](C)CN(C)C.Cl (racemic) [Compound 4, (2RS,3RS)-3-(3-difluoromethylphenyl)-1-dimethylamino-2-methylpentan-3-ol, hydrochloride]
Lowest Dose at which contractions disappeared for the first time over a period of 10 minutes [2]: 1.7 mg/kg

COc1cccc(C(O)(CCN(C)C)C(C)(C)C)c1.Cl (racemic) [Compound 6, (3RS)-1-dimethylamino-3-(3-methoxyphenyl)-4,4-dimethylpentan-3-ol, hydrochloride]
Lowest Dose at which contractions disappeared for the first time over a period of 10 minutes [2]: 16.7 mg/kg

CC[C@](O)(c1ccc(Cl)cc1)[C@H](C)CN(C)C.Cl (racemic) [Compound 14, (2RS,3RS)-3-(4-chlorophenyl)-1-dimethylamino-2-methylpentan-3-ol, hydrochloride]
Lowest Dose at which contractions disappeared for the first time over a period of 10 minutes [2]: 20.0 mg/kg

CC[C@](O)(c1cccc(SC)c1)[C@H](C)CN(C)C.Cl (racemic) [Compound 5, (2RS,3RS)-1-dimethylamino-2-methyl-3-(3-methylsulfanylphenyl)-pentan-3-ol, hydrochloride]
Lowest Dose at which contractions disappeared for the first time over a period of 10 minutes [2]: 2.3 mg/kg

CC[C@](OC(C)=O)(c1cccc(OC)c1)[C@H](C)CN(C)C.Cl [Compound 12, (+)-(1R,2R)-acetic acid-3-dimethylamino-1-ethyl-1-(3-methoxyphenyl)-2-methylpropyl ester, hydrochloride]
Lowest Dose at which contractions disappeared for the first time over a period of 10 minutes [2]: 30.0 mg/kg

CC[C@@H](c1cccc(O)c1)[C@@H](C)CN(C)C.Cl [Compound 11, (−)-(1R,2R)-3-(3-dimethylamino-1-ethyl-2-methylpropyl)-phenol, hydrochloride]
BC Bladder Capacity (change compared to the baseline value) ([1]; 0.5 mg/kg iv): +11% | ICI Inter-Contraction Interval (change compared to the baseline value) ([1]; 0.5 mg/kg iv): +22.6% | TP Threshold Pressure (change compared to the baseline value) ([1]; 0.5 mg/kg iv): +9%

CC[C@](O)(c1ccc(Cl)c(Cl)c1)[C@H](C)CN(C)C.Cl (racemic) [Compound 3, (2RS,3RS)-3-(3,4-dichlorophenyl)-1-dimethylamino-2-methylpentan-3-ol, hydrochloride]
Lowest Dose at which contractions disappeared for the first time over a period of 10 minutes [2]: 23.3 mg/kg

CCC(O)(c1cccc(O)c1)C(C)CN(C)C.Cl (racemic) [Compound 7, (2RS,3RS)-3-(3-dimethylamino-1-ethyl-1-hydroxy-2-methylpropyl)-phenol, hydrochloride]
BC Bladder Capacity (change compared to the baseline value) ([1]; 0.3 mg/kg iv): +32%* | ICI Inter-Contraction Interval (change compared to the baseline value) ([1]; 0.3 mg/kg iv): +28%* | TP Threshold Pressure (change compared to the baseline value) ([1]; 0.3 mg/kg iv): +95%**

CC[C@](O)(c1cccc(OC)c1)[C@H](C)CN(C)C.Cl (racemic) [Compound 1, (2RS,3RS)-1-dimethylamino-3-(3-methoxyphenyl)-2-methylpentan-3-ol, hydrochloride]
BC Bladder Capacity (change compared to the baseline value) ([1]; 1.0 mg/kg iv): +31%*** | ICI Inter-Contraction Interval (change compared to the baseline value) ([1]; 1.0 mg/kg iv): +42% | TP Threshold Pressure (change compared to the baseline value) ([1]; 1.0 mg/kg iv): +94%**
